This note sets out measurements from ChEMBL document CHEMBL4622883, “Bisbenzylisoquinoline alkaloids and P-glycoprotein function: A structure activity relationship study” (Bioorg Med Chem, 2020).

Each structure is given as a SMILES string.

In one data set the target is T1, ATP-dependent translocase ABCB1 (Homo sapiens, UniProt P08183). Briefly: Inhibition of P-glycoprotein-mediated Rhodamine-123 efflux in human MOLT4/DNR cells assessed as Rhodamine-123 accumulation incubated for 1 hr by flow cytometry. The format is cell-based. (In flow cytometry, cells or beads pass a laser one at a time.)
T1 sequence (P08183 whole entry): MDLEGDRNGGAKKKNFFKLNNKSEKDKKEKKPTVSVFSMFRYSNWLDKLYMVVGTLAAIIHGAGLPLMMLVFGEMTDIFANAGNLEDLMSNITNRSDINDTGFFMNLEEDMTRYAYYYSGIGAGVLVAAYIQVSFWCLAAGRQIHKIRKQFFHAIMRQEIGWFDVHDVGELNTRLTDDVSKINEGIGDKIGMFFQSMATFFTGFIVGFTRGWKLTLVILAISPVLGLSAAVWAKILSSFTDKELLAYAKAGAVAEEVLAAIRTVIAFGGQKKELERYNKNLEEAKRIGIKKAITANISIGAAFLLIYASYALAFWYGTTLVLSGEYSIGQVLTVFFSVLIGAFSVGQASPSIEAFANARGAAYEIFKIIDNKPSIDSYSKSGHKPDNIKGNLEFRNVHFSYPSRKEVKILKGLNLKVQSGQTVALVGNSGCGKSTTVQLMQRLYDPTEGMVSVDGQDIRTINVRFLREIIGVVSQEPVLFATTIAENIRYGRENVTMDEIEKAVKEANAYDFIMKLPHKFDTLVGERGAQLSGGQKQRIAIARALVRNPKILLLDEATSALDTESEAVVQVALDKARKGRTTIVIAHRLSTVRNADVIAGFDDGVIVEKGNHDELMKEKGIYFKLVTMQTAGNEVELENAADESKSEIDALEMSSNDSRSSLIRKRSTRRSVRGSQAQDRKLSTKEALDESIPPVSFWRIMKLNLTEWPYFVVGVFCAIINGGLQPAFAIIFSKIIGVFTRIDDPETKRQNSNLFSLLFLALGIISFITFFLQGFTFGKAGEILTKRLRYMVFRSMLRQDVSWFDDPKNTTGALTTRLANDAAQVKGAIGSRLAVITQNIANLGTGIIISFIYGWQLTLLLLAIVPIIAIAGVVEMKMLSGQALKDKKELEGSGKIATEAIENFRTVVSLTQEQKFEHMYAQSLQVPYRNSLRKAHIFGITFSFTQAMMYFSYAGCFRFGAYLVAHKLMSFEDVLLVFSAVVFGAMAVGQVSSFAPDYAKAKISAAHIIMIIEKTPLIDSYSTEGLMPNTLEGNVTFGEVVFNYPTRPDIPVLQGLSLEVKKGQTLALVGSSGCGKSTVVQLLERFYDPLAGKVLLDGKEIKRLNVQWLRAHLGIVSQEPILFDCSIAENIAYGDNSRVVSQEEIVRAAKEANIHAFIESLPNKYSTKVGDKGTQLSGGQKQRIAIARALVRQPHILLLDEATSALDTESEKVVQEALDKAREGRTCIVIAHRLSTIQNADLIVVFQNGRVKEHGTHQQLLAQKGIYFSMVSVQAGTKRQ
As to `COc1ccc2cc1Oc1ccc(cc1)C[C@H]1c3cc(c(OC)cc3CCN1C)Oc1c(OC)c(OC)cc3c1[C@H](C2)N(C)CC3` [FANCHININ], the “inhibition (INH)” value is given as “Dose-dependent effect”.

The target in the next data set is T1, ATP-dependent translocase ABCB1. Briefly: Inhibition of P-glycoprotein-mediated Rhodamine-123 efflux in human MOLT4/DNR cells assessed as inhibition of P-glycoprotein efflux function at 1 uM incubated for 1 hr by flow cytometry. The format is cell-based.
Turning to `COc1ccc2cc1Oc1ccc(cc1)C[C@H]1c3cc(c(OC)cc3CCN1C)Oc1c(OC)c(OC)cc3c1[C@@H](C2)N(C)CC3`, the “inhibition (INH)” value is on record as “Not Active”.
As for `COc1cc2c3cc1Oc1c(OC)c(OC)cc4c1[C@@H](Cc1ccc(O)c(c1)Oc1ccc(cc1)C[C@@H]3N(C)CC2)N(C)CC4` [BERBAMINE], the “inhibition (INH)” value was “Not Active”.
Same read-out and setting: the value for `COc1ccc2cc1Oc1ccc(cc1)C[C@H]1c3cc(c(OC)cc3CCN1C)Oc1c(OC)c(OC)cc3c1[C@H](C2)N(C)CC3` [FANCHININ] was “Active”.
As to `COc1ccc2cc1Oc1ccc(cc1)C[C@H]1c3cc(c(OC)cc3CCN1C)Oc1c(O)c(OC)cc3c1[C@H](C2)N(C)CC3` [FANGCHINOLINE], the “inhibition (INH)” value was “Not Active”.
As for `COc1ccc2cc1Oc1ccc(cc1)C[C@H]1c3c(cc4c(c3Oc3cc5c(cc3OC)CCN(C)[C@@H]5C2)OCO4)CCN1C` [CEPHARANTHINE], the “inhibition (INH)” value was “Not Active”.

The target is the same in the next data set. Briefly: Inhibition of P-glycoprotein-mediated Rhodamine-123 efflux in human MOLT4/DNR cells assessed as inhibition of P-glycoprotein efflux function at 0.3 uM incubated for 1 hr by flow cytometry. In kind it is cell-based.
With `COc1ccc2cc1Oc1ccc(cc1)C[C@H]1c3cc(c(OC)cc3CCN1C)Oc1c(OC)c(OC)cc3c1[C@@H](C2)N(C)CC3`, the “inhibition (INH)” value was “Not Active”.
As for `COc1cc2c3cc1Oc1c(OC)c(OC)cc4c1[C@@H](Cc1ccc(O)c(c1)Oc1ccc(cc1)C[C@@H]3N(C)CC2)N(C)CC4` [BERBAMINE], the “inhibition (INH)” value was “Not Active”.
Turning to `COc1ccc2cc1Oc1ccc(cc1)C[C@H]1c3cc(c(OC)cc3CCN1C)Oc1c(OC)c(OC)cc3c1[C@H](C2)N(C)CC3` [FANCHININ], the “inhibition (INH)” value is “Active”.

A further data set shares this target. As to the kind of experiment: Inhibition of P-glycoprotein-mediated Rhodamine-123 efflux in human MOLT4/DNR cells assessed as inhibition of P-glycoprotein efflux function at 10 uM incubated for 1 hr by flow cytometry. In kind it is cell-based.
For the compound `COc1cc2c(cc1OC)[C@@H](Cc1ccc(Oc3cc(C[C@@H]4c5cc(OC)c(OC)cc5CCN4C)ccc3O)cc1)N(C)CC2` [DAURICINE], the “inhibition (INH)” value is given as “Active”.
On to `COc1ccc2cc1Oc1ccc(cc1)C[C@H]1c3cc(c(OC)cc3CCN1C)Oc1c(OC)c(OC)cc3c1[C@@H](C2)N(C)CC3`, for which the “inhibition (INH)” value is given as “Active”.
Still for that read-out and setting: the value for `COc1cc2c(cc1OC)[C@@H](Cc1ccc(O)cc1)N(C)CC2` was “Active”.
`COc1cc2c3cc1Oc1c(OC)c(OC)cc4c1[C@@H](Cc1ccc(O)c(c1)Oc1ccc(cc1)C[C@@H]3N(C)CC2)N(C)CC4` [BERBAMINE]: the “inhibition (INH)” value was “Active”.
Regarding `COc1ccc2cc1Oc1ccc(cc1)C[C@H]1c3cc(c(OC)cc3CCN1C)Oc1c(OC)c(OC)cc3c1[C@H](C2)N(C)CC3` [FANCHININ], the “inhibition (INH)” value was “Active”.
With `COc1ccc2cc1Oc1ccc(cc1)C[C@H]1c3cc(c(OC)cc3CCN1C)Oc1c(O)c(OC)cc3c1[C@H](C2)N(C)CC3` [FANGCHINOLINE], the “inhibition (INH)” value was “Active”.
For `COc1ccc2cc1Oc1ccc(cc1)C[C@H]1c3c(cc4c(c3Oc3cc5c(cc3OC)CCN(C)[C@@H]5C2)OCO4)CCN1C` [CEPHARANTHINE], the “inhibition (INH)” value was “Active”.
